The fold induction is the ratio of treated to control signal.

In patent US20090069319A1, “IMIDAZOPYRIDINE ANALOGS AND THEIR USE AS AGONISTS OF THE WNT-BETA-CATENIN CELLULAR MESSAGING SYSTEM” (Wyeth, priority 2007, published 2009) one finds fold induction data, which are given here for 32 compounds.

This test in a line: Functional Dkk1-LRP5-TCF-Luciferase Assay in U2OS Cells (table columns: A=MAX FOLD Induction/DMSO CONTROL; B=fold induction @ 2.0 uM; C=fold induction @ 20.0 uM). It is filed as cell-based, Human. The conditions noted are these: Homo sapiens, U2OS; for fold induction at 2 µM: 2.0 uM compound; for fold induction at 20 µM: 20.0 uM compound. The method, then: Biological Evaluation—Functional Dkk1-LRP5-TCF-Luciferase Assay in U2OS Cells
U2OS Human Bone derived cells (Osteosarcoma) are grown in McCoy's 5A Medium (Modified), with L-glutamine (GIBCO Cat No. 16600-082)+1% Pen-Strep+5% FBS) plated at 1×10^7 cells/T175 cm flask. The next day, the cells are co-transfected overnight with the following plasmids: (a) Test reporter (16×TCF-TK-FireFly-Luci), (b) Internal Control Reporter (TK-Renilla-Luci), (c) Wnt3a and (d) Dkk1. GIBCO's Lipofectamine 2000 and OptiMEM were used for the transfection. After a minimum of 4 hr of transfection at 37° C., the plasmid-transfected cells are trypsinized, counted, and suspended in freezing medium (95% FBS+5% DMSO). The reporter cells are frozen at 1×10^7/ml concentrations, aliquoted into 0.5 ml or 2.5 ml/tube and stored at −70° C.
The following day, test compounds are added under HTS setup by Plate Track into 384 well plates (white, TC treated, Falcon plate) such that the final concentration of the compounds in 20 μL/well cell will be 5 μg/ml (final concentration of DMSO=0.25% and final compound concentration=20 μM). Vials of frozen reporter cells are thawed by warming the vial in a 37° C. water bath for 60-120 seconds with some shaking until the cells formed a suspension. The thawed cells are transferred into a cold 50 ml (or larger) tube and mixed well by gentle pipetting. The appropriate amount of cold Phenol Red Free RPMI medium-1640 (GIBCO, Cat # 11835-030) with L-glutamine is added, both with ˜5% FBS (GIBCO-BRL, Cat. # 16000-044), so that 20 μl of the final cell suspension will contain ˜5,000 cells. The cell dilution is done such that the final concentration of FBS was ˜5%. Diluted cells (20 μl) are added into each well in a 384 well plate. The plate is incubated at 37° C. under 5% CO2 for ˜20 h. Bright-Glo substrate, 2.5 μl/well is added, and the Fire Fly Luciferase is measured using VLUX (60 second exposure) immediately after the substrate was added. Test compounds are dissolved in DMSO (100%) and added to specified wells. Raw luciferase signal data obtained as relative luminescence units (RLUs) for the test compounds are normalized to the signal of the mean of the sample reporter cell plate with DMSO.
Active compounds have TCF-luciferase ratios of 2.5 fold or greater over DMSO. All compounds show a signal increase of at least 10% compared to a signal with only DMSO added.
A=MAX FOLD Induction/DMSO CONTROL
B=TCF ACTIVITY/DMSO CONTROL Fold induction @ 2.0 uM C=TCF ACTIVITY/DMSO CONTROL Fold induction @ 20.0 uM

Molecules are shown by their SMILES.

In the case of `Cn1c(=O)n(C2CCN(S(C)(=O)=O)CC2)c2nccc(-c3ccc4ccccc4c3)c21` [1-methyl-3-[1-(methylsulfonyl)piperidin-4-yl]-7-(2-naphthyl)-1,3-dihydro-2H-imidazo[4,5-b]pyridin-2-one], the fold induction at 2 µM was 1.52 and the fold induction at 20 µM was determined as 0.97.

On to `Cn1c(=O)n(C2CCN(C(=O)N3CCOCC3)CC2)c2nccc(-c3ccc4ccccc4c3)c21` [1-methyl-3-[1-(morpholin-4-ylcarbonyl)piperidin-4-yl]-7-(2-naphthyl)-1,3-dihydro-2H-imidazo[4,5-b]pyridin-2-one], for which the fold induction at 2 µM was found to be 1.29 and the fold induction at 20 µM was determined as 0.21.

As for `Cn1c(=O)n(C2CCNCC2)c2nccc(-c3ccc4ccccc4c3)c21` [1-methyl-7-(2-naphthyl)-3-piperidin-4-yl-1,3-dihydro-2H-imidazo[4,5-b]pyridin-2-one], the fold induction at 2 µM worked out at 1.07.

`c1ccc2cc(-c3cnc4c(c3)nc(-c3ccc5ccccc5c3)n4C3CCNCC3)ccc2c1` [2,6-di-2-naphthyl-3-piperidin-4-yl-3H-imidazo[4,5-b]pyridine]: the fold induction at 2 µM stood at 1.06.

For the compound `c1ccc2cc(-c3ccnc4c3nc(-c3ccc5ccccc5c3)n4C3CCNCC3)ccc2c1` [2,7-di-2-naphthyl-3-piperidin-4-yl-3H-imidazo[4,5-b]pyridine], the fold induction at 2 µM was determined as 1.02.

As for `c1ccc2cc(-c3ccnc4c3nc(-c3ccc5c(c3)OCO5)n4C3CCNCC3)ccc2c1` [2-(1,3-benzodioxol-5-yl)-7-(2-naphthyl)-3-piperidin-4-yl-3H-imidazo[4,5-b]pyridine], the fold induction at 2 µM was 1.36.

As for `CC(=O)n1cc(-c2nc3c(-c4ccc5ccccc5c4)ccnc3n2C2CCNCC2)c2ccccc21` [2-(1-acetyl-1H-indol-3-yl)-7-(2-naphthyl)-3-piperidin-4-yl-3H-imidazo[4,5-b]pyridine], the fold induction at 2 µM turned out to be 1.48.

As to `c1ccc2cc(-c3cnc4c(c3)nc(-c3cc5ccccc5o3)n4C3CCNCC3)ccc2c1` [2-(1-benzofuran-2-yl)-6-(2-naphthyl)-3-piperidin-4-yl-3H-imidazo[4,5-b]pyridine], the fold induction at 2 µM was 1.

For the compound `c1ccc2cc(-c3ccnc4c3nc(-c3cc5ccccc5o3)n4C3CCNCC3)ccc2c1` [2-(1-benzofuran-2-yl)-7-(2-naphthyl)-3-piperidin-4-yl-3H-imidazo[4,5-b]pyridine], the fold induction at 2 µM is 1.53 and the fold induction at 20 µM turned out to be 0.01.

Take `c1ccc2cc(-c3cnc4c(c3)nc(-c3ccc5occc5c3)n4C3CCNCC3)ccc2c1` [2-(1-benzofuran-5-yl)-6-(2-naphthyl)-3-piperidin-4-yl-3H-imidazo[4,5-b]pyridine]: the fold induction at 2 µM was 0.98.

Turning to `c1ccc2cc(-c3ccnc4c3nc(-c3ccc5occc5c3)n4C3CCNCC3)ccc2c1` [2-(1-benzofuran-5-yl)-7-(2-naphthyl)-3-piperidin-4-yl-3H-imidazo[4,5-b]pyridine], the fold induction at 2 µM is 0.9 and the fold induction at 20 µM was found to be 1.02.

In the case of `c1ccc2cc(-c3cnc4c(c3)nc(-c3cc5ccccc5s3)n4C3CCNCC3)ccc2c1` [2-(1-benzothien-2-yl)-6-(2-naphthyl)-3-piperidin-4-yl-3H-imidazo[4,5-b]pyridine], the fold induction at 2 µM worked out at 0.92.

As to `c1ccc2cc(-c3ccnc4c3nc(-c3cc5ccccc5s3)n4C3CCNCC3)ccc2c1` [2-(1-benzothien-2-yl)-7-(2-naphthyl)-3-piperidin-4-yl-3H-imidazo[4,5-b]pyridine], the fold induction at 2 µM was 1.02.

Take `c1ccc2cc(-c3ccnc4c3nc(-c3csc5ccccc35)n4C3CCNCC3)ccc2c1` [2-(1-benzothien-3-yl)-7-(2-naphthyl)-3-piperidin-4-yl-3H-imidazo[4,5-b]pyridine]: the fold induction at 2 µM worked out at 1.28.

On to `CCn1cnc(-c2nc3c(-c4ccc5ccccc5c4)ccnc3n2C2CCNCC2)c1C` [2-(1-ethyl-5-methyl-1H-imidazol-4-yl)-7-(2-naphthyl)-3-piperidin-4-yl-3H-imidazo[4,5-b]pyridine], for which the fold induction at 2 µM was 1.88.

Turning to `Cn1ccnc1-c1nc2c(-c3ccc4ccccc4c3)ccnc2n1C1CCNCC1` [2-(1-methyl-1H-imidazol-2-yl)-7-(2-naphthyl)-3-piperidin-4-yl-3H-imidazo[4,5-b]pyridine], the fold induction at 2 µM stood at 1.84.

In the case of `Cn1c(-c2nc3cc(-c4ccc5ccccc5c4)cnc3n2C2CCNCC2)cc2ccccc21` [2-(1-methyl-1H-indol-2-yl)-6-(2-naphthyl)-3-piperidin-4-yl-3H-imidazo[4,5-b]pyridine], the fold induction at 2 µM is 1.05.

`Cn1c(-c2nc3c(-c4ccc5ccccc5c4)ccnc3n2C2CCNCC2)cc2ccccc21` [2-(1-methyl-1H-indol-2-yl)-7-(2-naphthyl)-3-piperidin-4-yl-3H-imidazo[4,5-b]pyridine]: the fold induction at 2 µM was determined as 1.17.

For `Cn1cc(-c2nc3cc(-c4ccc5ccccc5c4)cnc3n2C2CCNCC2)c2ccccc21` [2-(1-methyl-1H-indol-3-yl)-6-(2-naphthyl)-3-piperidin-4-yl-3H-imidazo[4,5-b]pyridine], the fold induction at 2 µM was found to be 1.04.

On to `Cn1cc(-c2nc3c(-c4ccc5ccccc5c4)ccnc3n2C2CCNCC2)c2ccccc21` [2-(1-methyl-1H-indol-3-yl)-7-(2-naphthyl)-3-piperidin-4-yl-3H-imidazo[4,5-b]pyridine], for which the fold induction at 2 µM was found to be 1.23.

`Cn1cccc1-c1nc2c(-c3ccc4ccccc4c3)ccnc2n1C1CCNCC1` [2-(1-methyl-1H-pyrrol-2-yl)-7-(2-naphthyl)-3-piperidin-4-yl-3H-imidazo[4,5-b]pyridine]: the fold induction at 2 µM turned out to be 1.52 and the fold induction at 20 µM was found to be 0.01.

Consider `c1ccc2cc(-c3cnc4c(c3)nc(-c3cccc5ccccc35)n4C3CCNCC3)ccc2c1` [2-(1-naphthyl)-6-(2-naphthyl)-3-piperidin-4-yl-3H-imidazo[4,5-b]pyridine], for which the fold induction at 2 µM came to 1.11.

For the compound `c1ccc2cc(-c3ccnc4c3nc(-c3cccc5ccccc35)n4C3CCNCC3)ccc2c1` [2-(1-naphthyl)-7-(2-naphthyl)-3-piperidin-4-yl-3H-imidazo[4,5-b]pyridine], the fold induction at 2 µM was 1.39.

With `c1ccc2cc(-c3ccnc4c3nc(-c3ncc[nH]3)n4C3CCNCC3)ccc2c1` [2-(1H-imidazol-2-yl)-7-(2-naphthyl)-3-piperidin-4-yl-3H-imidazo[4,5-b]pyridine], the fold induction at 2 µM amounted to 1.42.

Turning to `c1ccc2cc(-c3cnc4c(c3)nc(-c3c[nH]c5ccccc35)n4C3CCNCC3)ccc2c1` [2-(1H-indol-3-yl)-6-(2-naphthyl)-3-piperidin-4-yl-3H-imidazo[4,5-b]pyridine], the fold induction at 2 µM turned out to be 1.11.

Consider `Fc1cccc(-c2nc3c(-c4ccc5ccccc5c4)ccnc3n2C2CCNCC2)c1F` [2-(2,3-difluorophenyl)-7-(2-naphthyl)-3-piperidin-4-yl-3H-imidazo[4,5-b]pyridine], for which the fold induction at 2 µM worked out at 1.9.

Take `c1ccc2cc(-c3ccnc4c3nc(-c3ccc5c(c3)OCCO5)n4C3CCNCC3)ccc2c1` [2-(2,3-dihydro-1,4-benzodioxin-6-yl)-7-(2-naphthyl)-3-piperidin-4-yl-3H-imidazo[4,5-b]pyridine]: the fold induction at 2 µM was determined as 1.18.

In the case of `Clc1ccc(-c2nc3cc(-c4ccc5ccccc5c4)cnc3n2C2CCNCC2)c(Cl)c1` [2-(2,4-dichlorophenyl)-6-(2-naphthyl)-3-piperidin-4-yl-3H-imidazo[4,5-b]pyridine], the fold induction at 2 µM worked out at 1.04.

In the case of `Clc1ccc(-c2nc3c(-c4ccc5ccccc5c4)ccnc3n2C2CCNCC2)c(Cl)c1` [2-(2,4-dichlorophenyl)-7-(2-naphthyl)-3-piperidin-4-yl-3H-imidazo[4,5-b]pyridine], the fold induction at 2 µM amounted to 1.1.

On to `Fc1ccc(-c2nc3cc(-c4ccc5ccccc5c4)cnc3n2C2CCNCC2)c(F)c1` [2-(2,4-difluorophenyl)-6-(2-naphthyl)-3-piperidin-4-yl-3H-imidazo[4,5-b]pyridine], for which the fold induction at 2 µM stood at 1.22.

`Fc1ccc(-c2nc3c(-c4ccc5ccccc5c4)ccnc3n2C2CCNCC2)c(F)c1` [2-(2,4-difluorophenyl)-7-(2-naphthyl)-3-piperidin-4-yl-3H-imidazo[4,5-b]pyridine]: the fold induction at 2 µM came to 1.42.

For `Cc1ccc(-c2nc3cc(-c4ccc5ccccc5c4)cnc3n2C2CCNCC2)c(C)c1` [2-(2,4-dimethylphenyl)-6-(2-naphthyl)-3-piperidin-4-yl-3H-imidazo[4,5-b]pyridine], the fold induction at 2 µM turned out to be 1.31.
